Measurements from publication PMC9687610, “Adenosine-Mimicking Derivatives of 3-Aminopyrazine-2-Carboxamide: Towards Inhibitors of Prolyl-tRNA Synthetase with Antimycobacterial Activity” (Biomolecules, 2022).
≈ marks a conversion by molar mass, not a printed value.

Experiments:
[1] = test system: Mycobacterium tuberculosis H37Ra ITM-M006710 (ATCC 9431); experiment: Microplate Alamar Blue Assay (MABA), Mtb H37Ra; format: cell-based; details: Middlebrook 7H9 broth pH 6.6, resazurin after 120 h; for MIC: Mycobacterium tuberculosis, 120 h, pH 6.6, MABA, read-out: Mtb H37Ra MIC
[2] = test system: Mycobacterium smegmatis DSM 43465 (ATCC 607); experiment: Microplate Alamar Blue Assay (MABA), M. smegmatis; format: cell-based; details: Mycolicibacterium smegmatis; MABA, resazurin after 48 h; read-out: M. smegmatis MIC
[3] = test system: M. aurum DSM 43999 (ATCC 23366); experiment: Microplate Alamar Blue Assay (MABA), M. aurum; format: cell-based; details: Mycolicibacterium aurum; MABA, resazurin after 72 h; read-out: M. aurum MIC
[4] = test system: Staphylococcus aureus subsp. aureus CCM 4223 (ATCC 29213); experiment: Antibacterial microdilution broth (EUCAST), SA; format: cell-based; details: Staphylococcus aureus; read after 24 h; read-out: SA MIC
[5] = test system: Staphylococcus aureus subsp. aureus methicillin-resistant (MRSA) CCM 4750 (ATCC 43300); experiment: Antibacterial microdilution broth (EUCAST), MRSA; format: cell-based; details: Staphylococcus aureus; read after 24 h; read-out: MRSA MIC
[6] = test system: Staphylococcus epidermidis CCM 4418 (ATCC 12228); experiment: Antibacterial microdilution broth (EUCAST), SE; format: cell-based; details: read after 24 h, read-out: SE MIC
[7] = test system: Enterococcus faecalis CCM 4224 (ATCC 29212); experiment: Antibacterial microdilution broth (EUCAST), EF; format: cell-based; details: Enterococcus faecalis; read after 24 h; read-out: EF MIC
[8] = test system: Escherichia coli CCM 3954 (ATCC 25922); experiment: Antibacterial microdilution broth (EUCAST), EC; format: cell-based; details: Escherichia coli; read after 24 h; read-out: EC MIC
[9] = test system: Acinetobacter baumannii DSM 30007 (ATCC 19606); experiment: Antibacterial microdilution broth (EUCAST), ACI; format: cell-based; details: Acinetobacter baumannii; read after 24 h; read-out: ACI MIC
[10] = test system: Pseudomonas aeruginosa CCM 3955 (ATCC 27853); experiment: Antibacterial microdilution broth (EUCAST), PA; format: cell-based; details: Pseudomonas aeruginosa; read after 24 h; read-out: PA MIC
[11] = test system: Candida albicans CCM 8320 (ATCC 24433); experiment: Antifungal microdilution broth (EUCAST), CA; format: cell-based; details: Candida albicans; read after 24 h; read-out: CA MIC
[12] = test system: Candida krusei CCM 8271 (ATCC 6258); experiment: Antifungal microdilution broth (EUCAST), CK; format: cell-based; details: Pichia kudriavzevii; read after 24 h; read-out: CK MIC
[13] = test system: Candida parapsilosis CCM 8260 (ATCC 22019); experiment: Antifungal microdilution broth (EUCAST), CP; format: cell-based; details: Lodderomyces parapsilosis; read after 24 h; read-out: CP MIC
[14] = test system: Candida tropicalis CCM 8264 (ATCC 750); experiment: Antifungal microdilution broth (EUCAST), CT; format: cell-based; details: Candida tropicalis; read after 24 h; read-out: CT MIC
[15] = test system: Aspergillus fumigatus ATCC 204305; experiment: Antifungal microdilution broth (EUCAST), AF; format: cell-based; details: Aspergillus fumigatus, ATCC204305; read after 24 h; read-out: AF MIC
[16] = test system: Aspergillus flavus CCM 8363; experiment: Antifungal microdilution broth (EUCAST), AFla; format: cell-based; details: Aspergillus flavus, CCM8363; read after 24 h; read-out: AFla MIC
[17] = test system: Lichtheimia corymbifera CCM 8077; experiment: Antifungal microdilution broth (EUCAST), LC; format: cell-based; details: Lichtheimia corymbifera, CCM8077; read after 24 h; read-out: LC MIC
[18] = test system: Trichophyton interdigitale CCM 8377 (ATCC 9533); experiment: Antifungal microdilution broth (EUCAST), TI; format: cell-based; details: Trichophyton interdigitale, 72 h, read-out: TI MIC
[19] = test system: HepG2 human hepatocellular carcinoma cells; experiment: In vitro HepG2 cytotoxicity (CellTiter 96); details: Homo sapiens, HepG2, 24 h, read-out: HepG2 IC50, 24 h incubation; * limit = highest evaluated concentration (precipitation in medium); ** over the 1000 µM limit
[20] = test system: Klebsiella pneumoniae CCM 4415 (ATCC 10031); experiment: Antibacterial microdilution broth (EUCAST), KP; details: read after 24 h
[21] = test system: Mycobacterium tuberculosis H37Rv CNCTC My 331/88 (ATCC 27294); experiment: MABA microdilution, Mtb H37Rv; format: cell-based; details: Mycobacterium tuberculosis; read-out: Mtb H37Rv MIC
Mtb laboratory ID IZAK = details: Laboratory ID IZAK, cited from earlier work; for Susceptibility: CLSI breakpoints 2020; for Minimum inhibitory concentration: tested and interpreted according to CLSI breakpoints in 2020
Mtb laboratory ID MATI = details: Laboratory ID MATI, cited from earlier work; for Susceptibility: CLSI breakpoints 2021; for Minimum inhibitory concentration: tested and interpreted according to CLSI breakpoints in 2021

| SMILES | MIC [1] [µg/mL] | MIC [2] [µg/mL] | MIC [3] [µg/mL] | IC50 [19] [µM] | MIC [21] [µg/mL] | Susceptibility (Mtb laboratory ID IZAK) | Minimum inhibitory concentration (Mtb laboratory ID IZAK) [µg/mL] | Susceptibility (Mtb laboratory ID MATI) | Minimum inhibitory concentration (Mtb laboratory ID MATI) [µg/mL] | also measured |
| --- | --- | --- | --- | --- | --- | --- | --- | --- | --- | --- |
| O=c1[nH]c(-c2ccc(Br)cc2)nc2nccnc12 [Compound 43] | 31.2 (≈ 103 µM) | ≥ 500 | ≥ 500 | > 250 |  |  |  |  |  | MIC [4]: > 125 µM; MIC [5]: > 125 µM; MIC [6]: > 125 µM; MIC [7]: > 125 µM; MIC [8]: > 125 µM; MIC [9]: > 125 µM; MIC [10]: > 125 µM; MIC [11]: > 125 µM; MIC [12]: > 125 µM; MIC [13]: > 125 µM; MIC [14]: > 125 µM; MIC [15]: > 125 µM; MIC [16]: > 125 µM; MIC [17]: > 125 µM; MIC [18]: > 125 µM; melting point: 315.4 to 317.4 °C; KP MIC [20]: > 125 µM |
| CC[C@@H](CO)NCCN[C@@H](CC)CO [EMB, ethambutol] | 0.5 (≈ 2.45 µM) |  |  |  | 0.39 (≈ 1.91 µM) | sensitive | 0.5 (≈ 2.45 µM) | sensitive | 0.5 (≈ 2.45 µM) |  |
| NNC(=O)c1ccncc1 [INH, isoniazid] | 0.25 (≈ 1.82 µM) | 15.6 (≈ 114 µM) | 3.91 (≈ 28.5 µM) | > 1000 | 0.2 (≈ 1.46 µM) |  |  | resistant |  | Mtb H37Ra MIC ([1]; MABA): 0.25 to 0.5 µg/mL |
| NC(=O)c1cnccn1 [PZA, pyrazinamide] |  |  |  |  |  | resistant | > 16 | resistant | > 128 |  |
| CO[C@H]1/C=C/O[C@@]2(C)Oc3c(C)c(O)c4c(O)c(c(/C=N/N5CCN(C)CC5)c(O)c4c3C2=O)NC(=O)/C(C)=C\C=C\[C@H](C)[C@H](O)[C@@H](C)[C@@H](O)[C@@H](C)[C@H](OC(C)=O)[C@@H]1C [RIF, rifampicin] | 0.003 (≈ 0.00365 µM) | 12.5 (≈ 15.2 µM) | 0.39 (≈ 0.474 µM) | > 500 |  | resistant | > 8 | resistant | > 8 |  |
| [H]/N=C(/N)N[C@H]1[C@H](O)[C@@H](O)[C@H](O[C@@H]2O[C@@H](C)[C@](O)(C=O)[C@H]2O[C@@H]2O[C@@H](CO)[C@H](O)[C@@H](O)[C@@H]2NC)[C@@H](N/C(N)=N\[H])[C@@H]1O [STM, streptomycin] | 0.5 (≈ 0.86 µM) |  |  |  |  | resistant | 4 (≈ 6.88 µM) | resistant | > 16 |  |
